According to ChEMBL document CHEMBL3297661, “1-Substituted-5-[(3,5-dinitrobenzyl)sulfanyl]-1H-tetrazoles and their isosteric analogs: A new class of selective antitubercular agents active against drug-susceptible and multidrug-resistant mycobacteria” (Eur J Med Chem, 2014):
Converted amounts (≈) assume the structure as drawn.

Legend:
[1] = test system: Mycobacterium tuberculosis; assay: Antimycobacterial activity against Mycobacterium tuberculosis CNCTC My 331/88 after 14 days by micromethod; assay type: functional; settings: CNCTC My 331/88, 336 h
Mycobacterium avium [2] = assay: Antimycobacterial activity against Mycobacterium avium CNCTC My 330/88 after 21 days by micromethod; assay type: functional; settings: CNCTC My 330/88, 504 h
[3] = test system: Mycobacterium tuberculosis; assay: Antimycobacterial activity against Mycobacterium tuberculosis CNCTC My 331/88 after 21 days by micromethod; assay type: functional; settings: CNCTC My 331/88, 504 h
Mycobacterium kansasii [4] = assay: Antimycobacterial activity against Mycobacterium kansasii CNCTC My 235/80 after 7 days by micromethod; assay type: functional; settings: CNCTC My 235/80, 168 h
Mycobacterium kansasii [5] = assay: Antimycobacterial activity against Mycobacterium kansasii 6509/96 after 7 days by micromethod; assay type: functional; settings: 6509/96, 168 h
Mycobacterium kansasii [6] = assay: Antimycobacterial activity against Mycobacterium kansasii 6509/96 after 14 days by micromethod; assay type: functional; settings: 6509/96, 336 h
Mycobacterium kansasii [7] = assay: Antimycobacterial activity against Mycobacterium kansasii 6509/96 after 21 days by micromethod; assay type: functional; settings: 6509/96, 504 h
Mycobacterium kansasii [8] = assay: Antimycobacterial activity against Mycobacterium kansasii CNCTC My 235/80 after 21 days by micromethod; assay type: functional; settings: CNCTC My 235/80, 504 h
Mycobacterium kansasii [9] = assay: Antimycobacterial activity against Mycobacterium kansasii CNCTC My 235/80 after 14 days by micromethod; assay type: functional; settings: CNCTC My 235/80, 336 h
Mycobacterium avium [10] = assay: Antimycobacterial activity against Mycobacterium avium CNCTC My 330/88 after 14 days by micromethod; assay type: functional; settings: CNCTC My 330/88, 336 h
HepG2 = assay: Cytotoxicity against human HepG2 cells assessed as reduction in cell viability after 48 hrs by MTT assay; assay type: cell-based; settings: HepG2, 48 h
[11] = Cytotoxicity against human HuH7 cells assessed as reduction in cell viability after 48 hrs by MTT assay; assay type: cell-based; settings: Huh-7, 48 h
[12] = Cytotoxicity against human HepG2 cells assessed as cell viability at 30 uM after 48 hrs by MTT assay; assay type: cell-based; settings: read-out: Activity
[13] = Cytotoxicity against MDCK2 cells assessed as cell viability at 30 uM after 48 hrs by MTT assay; assay type: cell-based, Canis lupus familiaris, MDCK-II; settings: dog, read-out: Activity
[14] = Cytotoxicity against MDCK2 cells assessed as reduction in cell viability after 48 hrs by MTT assay; assay type: cell-based; settings: Canis lupus familiaris, MDCK-II
[15] = Cytotoxicity against human HuH7 cells assessed as cell viability at 30 uM after 48 hrs by MTT assay; assay type: cell-based, Huh-7; settings: read-out: Activity
[16] = Cytotoxicity against human HeLa cells assessed as cell viability at 30 uM after 48 hrs by MTT assay; assay type: cell-based; settings: read-out: Activity

Compound | MIC [1] [µM] | MIC (Mycobacterium avium [2]) [µM] | MIC [3] [µM] | MIC (Mycobacterium kansasii [4]) [µM] | MIC (Mycobacterium kansasii [5]) [µM] | MIC (Mycobacterium kansasii [6]) [µM] | MIC (Mycobacterium kansasii [7]) [µM] | MIC (Mycobacterium kansasii [8]) [µM] | MIC (Mycobacterium kansasii [9]) [µM] | MIC (Mycobacterium avium [10]) [µM] | IC50 (HepG2) [µM] | IC50 [11] [µM] | viability at 48 h, 30 µM [12] [%] | viability at 48 h, 30 µM [13] [%] | IC50 [14] [µM] | viability at 48 h, 30 µM [15] [%] | viability at 48 h, 30 µM [16] [%]
O=[N+]([O-])c1cc(CSc2nnnn2C23CC4CC(CC(C4)C2)C3)cc([N+](=O)[O-])c1 | 4 (≈ 1.67 µg/mL) | 500 (≈ 208 µg/mL) | 4 (≈ 1.67 µg/mL) | 4 (≈ 1.67 µg/mL) | 8 (≈ 3.33 µg/mL) | 8 (≈ 3.33 µg/mL) | 8 (≈ 3.33 µg/mL) | 16 (≈ 6.66 µg/mL) | 8 (≈ 3.33 µg/mL) | 500 (≈ 208 µg/mL) |  |  |  |  |  |  | 
COc1ccc(-n2nnnc2SCc2cc([N+](=O)[O-])cc([N+](=O)[O-])c2)cc1 | 2 (≈ 0.777 µg/mL) | 32 (≈ 12.4 µg/mL) | 4 (≈ 1.55 µg/mL) | 1 (≈ 0.388 µg/mL) | 1 (≈ 0.388 µg/mL) | 1 (≈ 0.388 µg/mL) | 2 (≈ 0.777 µg/mL) | 4 (≈ 1.55 µg/mL) | 4 (≈ 1.55 µg/mL) | 16 (≈ 6.21 µg/mL) | > 30 | > 30 | 90 | 123 | > 30 | 86 | 39
Cc1ccc(-n2nnnc2SCc2cc([N+](=O)[O-])cc([N+](=O)[O-])c2)cc1C | 500 (≈ 193 µg/mL) | 250 (≈ 96.6 µg/mL) | 500 (≈ 193 µg/mL) | 250 (≈ 96.6 µg/mL) | 250 (≈ 96.6 µg/mL) | 250 (≈ 96.6 µg/mL) | 250 (≈ 96.6 µg/mL) | 250 (≈ 96.6 µg/mL) | 250 (≈ 96.6 µg/mL) | 250 (≈ 96.6 µg/mL) |  |  |  |  |  |  | 
c1ccc(C[Se]c2nnnn2C2CCCCC2)cc1 | 125 (≈ 40.2 µg/mL) | 125 (≈ 40.2 µg/mL) | 125 (≈ 40.2 µg/mL) | 8 (≈ 2.57 µg/mL) | 62 (≈ 19.9 µg/mL) | 250 (≈ 80.3 µg/mL) | 500 (≈ 161 µg/mL) | 32 (≈ 10.3 µg/mL) | 32 (≈ 10.3 µg/mL) | 125 (≈ 40.2 µg/mL) |  |  |  |  |  |  | 
O=[N+]([O-])c1cc(CS(=O)(=O)c2nnnn2-c2ccccc2)cc([N+](=O)[O-])c1 | 8 (≈ 3.12 µg/mL) | 125 (≈ 48.8 µg/mL) | 8 (≈ 3.12 µg/mL) | 32 (≈ 12.5 µg/mL) | 32 (≈ 12.5 µg/mL) | 62 (≈ 24.2 µg/mL) | 62 (≈ 24.2 µg/mL) | 62 (≈ 24.2 µg/mL) | 62 (≈ 24.2 µg/mL) | 62 (≈ 24.2 µg/mL) |  |  |  |  |  |  | 
O=[N+]([O-])c1cc(C[S+]([O-])c2nnnn2-c2ccccc2)cc([N+](=O)[O-])c1 (configuration not stated) | 62 (≈ 23.2 µg/mL) | 125 (≈ 46.8 µg/mL) | 62 (≈ 23.2 µg/mL) | 62 (≈ 23.2 µg/mL) | 125 (≈ 46.8 µg/mL) | 250 (≈ 93.6 µg/mL) | 250 (≈ 93.6 µg/mL) | 250 (≈ 93.6 µg/mL) | 250 (≈ 93.6 µg/mL) | 125 (≈ 46.8 µg/mL) |  |  |  |  |  |  | 
CCCCCCn1nnnc1SCc1cc([N+](=O)[O-])cc([N+](=O)[O-])c1 | 1 (≈ 0.366 µg/mL) | 62 (≈ 22.7 µg/mL) | 2 (≈ 0.733 µg/mL) | 2 (≈ 0.733 µg/mL) | 2 (≈ 0.733 µg/mL) | 4 (≈ 1.47 µg/mL) | 8 (≈ 2.93 µg/mL) | 8 (≈ 2.93 µg/mL) | 4 (≈ 1.47 µg/mL) | 32 (≈ 11.7 µg/mL) |  |  |  |  |  |  | 
COc1ccc(-n2nnnc2OCc2cc([N+](=O)[O-])cc([N+](=O)[O-])c2)cc1 | 2 (≈ 0.745 µg/mL) | 32 (≈ 11.9 µg/mL) | 2 (≈ 0.745 µg/mL) | 4 (≈ 1.49 µg/mL) | 4 (≈ 1.49 µg/mL) | 16 (≈ 5.96 µg/mL) | 16 (≈ 5.96 µg/mL) | 16 (≈ 5.96 µg/mL) | 8 (≈ 2.98 µg/mL) | 16 (≈ 5.96 µg/mL) |  |  |  |  |  |  | 
Nc1cc(N)cc(CSc2nnnn2-c2ccccc2)c1 | 250 (≈ 74.6 µg/mL) | 1000 (≈ 298 µg/mL) | 500 (≈ 149 µg/mL) | 250 (≈ 74.6 µg/mL) | 250 (≈ 74.6 µg/mL) | 1000 (≈ 298 µg/mL) | 1000 (≈ 298 µg/mL) | 1000 (≈ 298 µg/mL) | 1000 (≈ 298 µg/mL) | 1000 (≈ 298 µg/mL) |  |  |  |  |  |  | 
COc1ccc(-n2nnnc2S(=O)(=O)Cc2cc([N+](=O)[O-])cc([N+](=O)[O-])c2)cc1 | 8 (≈ 3.36 µg/mL) | 125 (≈ 52.5 µg/mL) | 8 (≈ 3.36 µg/mL) | 125 (≈ 52.5 µg/mL) | 125 (≈ 52.5 µg/mL) | 125 (≈ 52.5 µg/mL) | 125 (≈ 52.5 µg/mL) | 250 (≈ 105 µg/mL) | 250 (≈ 105 µg/mL) | 125 (≈ 52.5 µg/mL) |  |  |  |  |  |  | 
COc1ccccc1-n1nnnc1SCc1cc([N+](=O)[O-])cc([N+](=O)[O-])c1 | 125 (≈ 48.5 µg/mL) | 125 (≈ 48.5 µg/mL) | 125 (≈ 48.5 µg/mL) | 125 (≈ 48.5 µg/mL) | 125 (≈ 48.5 µg/mL) | 125 (≈ 48.5 µg/mL) | 125 (≈ 48.5 µg/mL) | 125 (≈ 48.5 µg/mL) | 125 (≈ 48.5 µg/mL) | 125 (≈ 48.5 µg/mL) |  |  |  |  |  |  | 
CC(=O)SCc1cc([N+](=O)[O-])cc([N+](=O)[O-])c1 | 8 (≈ 2.05 µg/mL) | 125 (≈ 32 µg/mL) | 16 (≈ 4.1 µg/mL) | 16 (≈ 4.1 µg/mL) | 62 (≈ 15.9 µg/mL) | 125 (≈ 32 µg/mL) | 500 (≈ 128 µg/mL) | 125 (≈ 32 µg/mL) | 32 (≈ 8.2 µg/mL) | 62 (≈ 15.9 µg/mL) |  |  |  |  |  |  | 
